Experimental data published in patent publication US20050059726A1, “Pyrrolidine-2-ones as factor xa inhibitors” (priority 2001, published 2005).
Where a name gives a salt, the structure may show the parent alone.

Target: human Factor Xa (Homo sapiens, UniProt P00742)
Assay: In vitro assay for inhibition of Factor Xa (2), fluorogenic assay
Format: biochemical
Settings: substrate Rhodamine 110, bis-(CBZ-glycylglycyl-L-arginine amide 10 μM), Ki calculated from IC50
Procedure: In Vitro Assay for Inhibition of Factor Xa (2)
All other compounds of the present invention were tested for their Factor Xa inhibitory activity as determined in vitro by their ability to inhibit human Factor Xa in a fluorogenic assay, using Rhodamine 110, bis-(CBZ-glycylglycyl-L-arginine amide as the fluorogenic substrate. Compounds were diluted from a 10 mM stock solution in dimethylsulfoxide at appropriate concentrations. Assay was performed at room temperature using buffer consisting of: 50 mM Tris-HCl, 150 mM NaCl, 5 mM CaCl2, pH 7.4. containing human Factor Xa (final conc. Of 0.0003U.ml−1). Compound and enzyme were preincubated for 15 min prior to addition of the substrate (final conc. of 10 μM). The reaction was stopped after 3 hrs with the addition of H-D-PHE-PRO-ARG-Chloromethylketone. […] To obtain IC50 values the data were analysed using ActivityBase® and XLfit®.
Calculation of Ki values:
Ki=IC50/(1+[Substrate]/Km)
The Ki value for the above assay can be obtained by dividing the IC50 value by 1.6.

Sequence of human Factor Xa (P00742 235-488 limits assumed): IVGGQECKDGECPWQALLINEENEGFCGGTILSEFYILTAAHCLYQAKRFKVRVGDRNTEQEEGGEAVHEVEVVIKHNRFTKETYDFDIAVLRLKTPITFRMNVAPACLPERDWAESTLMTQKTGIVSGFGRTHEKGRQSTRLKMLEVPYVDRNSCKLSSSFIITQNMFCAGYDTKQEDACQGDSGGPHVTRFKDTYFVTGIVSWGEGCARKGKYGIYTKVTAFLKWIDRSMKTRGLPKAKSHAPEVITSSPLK
Sequence of human Factor Xa (P00742 41-179 partner limits assumed): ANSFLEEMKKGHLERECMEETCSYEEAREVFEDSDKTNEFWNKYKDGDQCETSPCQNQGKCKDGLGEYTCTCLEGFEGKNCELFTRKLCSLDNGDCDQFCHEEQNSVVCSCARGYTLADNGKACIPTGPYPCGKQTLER

SMILES | Ki [nM]
CC(C)N(C=O)c1ccc(N2CC[C@H](NS(=O)(=O)c3cc4ccc(Cl)cc4s3)C2=O)c(F)c1 [Example 121, 6-Chloro-N-((3S)-1-{2-fluoro-4-[formyl(isopropyl)amino]phenyl}-2-oxopyrrolidin-3-yl)-1-benzothiophene-2-sulfonamide] | < 20
O=C1[C@@H](NS(=O)(=O)c2ccc3cc(Cl)ccc3c2)CCN1c1ccc(-c2cccnc2)cc1F [Example 57, 6-Chloro-N-[(3S)-1-(2-fluoro-4-pyridin-3ylphenyl)-2-oxopyrrolidin-3-yl]naphthalene-2-sulfonamide] | < 10
NCc1cccc(-c2ccc(N3CC[C@H](NS(=O)(=O)c4ccc5cc(Cl)ccc5c4)C3=O)c(F)c2)c1 [Example 64] | < 10
O=C1[C@@H](NS(=O)(=O)CCc2ccc(Cl)s2)CCN1c1ccc(I)cn1 [Example 132, 2-(5-Chlorothien-2-yl)-N-[(3S)-1-(5-iodopyridin-2-yl)-2-oxopyrrolidin-3-yl]ethane-1-sulfonamide] | < 20
CC(C)N(C=O)c1ccc(N2CC[C@H](NS(=O)(=O)/C=C/c3ccc(Cl)s3)C2=O)c(F)c1 [Example 120, (E)-2-(5-Chlorothien-2-yl)-N-((3S)-1-{2-fluoro-4-[formyl(isopropyl)amino]phenyl}-2-oxopyrrolidin-3-yl)ethenesulfonamide] | < 10
CC(=O)Nc1ccc(N2CC[C@H](NS(=O)(=O)c3cc4ccc(Cl)cc4s3)C2=O)c(F)c1 [Example 117, N-[4-((3S)-3-{[(6-Chloro-1-benzothien-2-yl)sulfonyl]amino}-2-oxopyrrolidinyl)-3-fluorophenyl]acetamide] | < 1000
O=C1[C@@H](NS(=O)(=O)/C=C/c2ccc(Cl)s2)CCN1c1ccc([N+](=O)[O-])cc1F [Example 95, (E)-2-(5-Chloro-2-thienyl)-N-[(3S)-1-(2-fluoro-4-nitrophenyl)-2-oxopyrrolidinyl]ethenesulfonamide] | < 20
CSc1ccccc1-c1cnc(N2CC[C@H](NS(=O)(=O)c3ccc4cc(Cl)ccc4c3)C2=O)s1 [Example 51, 6-Chloro-naphthalene-2-sulphonic Acid [(S)-1-[5-(2-methylsulphanylphenyl)-thiazol-2-yl]-2-oxo:pyrrolidin-3-yl]amide] | < 200
O=C1[C@@H](NS(=O)(=O)/C=C/c2ccc(Cl)s2)CCN1c1ccc(-c2ccccc2[N+](=O)[O-])cn1 [Example 17, (E)-2-(5-Chlorothien-2-yl)-N-{(3S)-1-[5-(2-nitrophenyl)pyridin-2-yl]-2-oxopyrrolidin-3-yl}ethenesulfonamide] | < 10
O=C1[C@@H](NS(=O)(=O)c2ccc3cc(Cl)ccc3c2)CCN1c1ccc(-c2ccsc2)cc1F [Example 67, 6-Chloro-N-[(3S)-1-(2-fluoro-4-thien-3-ylphenyl)-2-oxopyrrolidin-3-yl]naphthalene-2-sulfonamide] | < 200
N#Cc1ccc(N2CC[C@H](NS(=O)(=O)/C=C/c3ccc(Cl)s3)C2=O)c(F)c1 [Example 98, (E)-2-(5-Chlorothien-2-yl)-N-[(3S)-1-(4-cyano-2-fluorophenyl)-2-oxopyrrolidin-3-yl]ethenesulfonamide] | < 200
O=C1[C@@H](NS(=O)(=O)c2ccc3cc(Cl)ccc3c2)CCN1c1ccc(-c2ccccc2)cc1F [Example 74, 6-Chloro-N-[(3S)-1-(3-fluoro-1,1′-biphenyl-4-yl)-2-oxopyrrolidin-3-yl]naphthalene-2-sulfonamide] | < 200
Cn1cnc(-c2ccc(N3CC[C@H](NS(=O)(=O)c4ccc5cc(Cl)ccc5c4)C3=O)c(F)c2)c1 [Example 84, 6Chloro-N-{(3S)-1-[2-fluoro-4-(1-methyl-1H-imidazol-4-yl)phenyl]-2-oxopyrrolidin-3-yl}naphthalene-2-sulfonamide Formate] | < 20
O=C1[C@@H](NS(=O)(=O)c2ccc3cc(Cl)ccc3c2)CCN1c1ccc(-n2ccnc2)cc1F [Example 122, 6-Chloro-N-{(3S)-1-[2-fluoro-4-(1H-imidazol-1-yl)phenyl]-2-oxopyrrolidin-3-yl}naphthalene-2-sulfonamide] | < 10
CCC(=O)Nc1ccc(N2CC[C@H](NS(=O)(=O)c3cc4ccc(Cl)cc4s3)C2=O)c(F)c1 [Example 118, N-[4-((3S)-3-{[(6-Chloro-1-benzothien-2-yl)sulfonyl]amino}-2-oxopyrrolidinyl)-3-fluorophenyl]propanamide] | < 1000
O=C1[C@@H](NS(=O)(=O)c2ccc3cc(Cl)ccc3c2)CCN1c1ccc(-c2ccoc2)cc1F [Example 65, 6-Chloro-N-{(3S)-1-[2-fluoro-4-(3-furyl)phenyl]-2-oxopyrrolidin-3-}naphthalene-2-sulfonamide] | < 200

More lines, now with the values ahead:

Ki [nM] | SMILES
< 200 | O=C1[C@@H](NS(=O)(=O)c2ccc3cc(Cl)ccc3c2)CCN1c1ccc(-c2ccc(Cl)s2)cc1F [Example 71, 6-Chloro-N-{(3S)-1-[4-(5-chlorothien-2-yl)-2-fluorophenyl]-2-oxopyrrolidin-3-yl}naphthalene-2-sulfonamide]
< 10 | CS(=O)(=O)c1ccccc1-c1ccc(N2CC[C@H](NS(=O)(=O)c3cc4nc(Cl)ccc4s3)C2=O)c(F)c1 [Example 38, 5-Chloro-N-{(3S)-1-[3-fluoro-2′-(methylsulfonyl)-1,1′-biphenyl-4-yl]-2-oxopyrrolidin-3-yl}thieno[3,2-b]pyridine-2-sulfonamide]
< 10 | NS(=O)(=O)c1ccccc1-c1ccc(N2CC[C@H](NS(=O)(=O)c3cc4ccc(Cl)cc4s3)C2=O)c(F)c1 [Example 15, N-{(3S)-1-[2′-(Aninosulfonyl)-3-fluoro-1,1′-biphenyl-4-yl]-2-oxopyrrolidin-3-yl}-6-chloro-1-benzothiophene-2-sulfonamide]
< 10 | CS(=O)(=O)c1ccccc1-c1ccc(N2CC[C@H](N(CC(N)=O)S(=O)(=O)/C=C/c3ccc(Cl)s3)C2=O)c(F)c1 [Example 46]
< 10 | NC(=O)CN([C@H]1CCN(c2ccc(-c3ccccc3S(N)(=O)=O)cc2F)C1=O)S(=O)(=O)c1cc2ccc(Cl)cc2s1 [Example 140, 2-{(6-Chloro-benzo[b]thiophene-2-sulphonyl)-[(S)-1-(3-fluoro-2′-sulfamoyl-biphenyl-4-yl)-2-oxo-pyrrolidin-3-yl]-amino}-acetamide Formate]
< 20 | CS(=O)(=O)c1ccccc1-c1ccc(N2CC[C@H](NS(=O)(=O)c3cnc(-c4ccc(Cl)s4)s3)C2=O)c(F)c1 [Example 86, 2-(5-Chlorothien-2-yl)-N-{(3S)-1-[3-fluoro-2′-(methylsulfonyl)-1,1′-biphenyl-4-yl]-2-oxopyrrolidin-3-yl}-1,3-thiazole-5-sulfonamide]
< 10 | CN(c1ccccc1-c1ccc(N2CC[C@H](NS(=O)(=O)/C=C/c3ccc(Cl)s3)C2=O)nc1)S(C)(=O)=O [Example 30, (E)-2-(5-Chlorothien-2-yl)-N-[(3S)-1-(5-{2-[methyl(methylsulfonyl)amino]phenyl}pyridin-2-yl)-2-oxopyrrolidin-3yl]ethenesulfonamide]
< 200 | Cc1ccc(-c2ccc(N3CC[C@H](NS(=O)(=O)c4ccc5cc(Cl)ccc5c4)C3=O)c(F)c2)s1 [Example 68, 6-Chloro-N-{(3S)-1-[2-fluoro-4-(5-methylthien-2-yl)phenyl]-2-oxopyrrolidin-3-yl}naphthalene-2-sulfonamide]
